3 compounds from patent US20140378306A1, “USE OF 5-PHENYL- OR 5-BENZYL-2 ISOXAZOLINE-3 CARBOXYLATES FOR IMPROVING PLANT YIELD” (Bayer Intellectual Property GmbH, priority 2011, published 2014) can be followed below.

For assay [1], the system named is sugarbeets. Put plainly: Field trial: emergence of sugarbeets, seed treatment with isoxadifen. The following applies: seed treatment 0.015 mg ai/seed. It counts as in vivo, sugarbeet. The text has this:
(§1) The trials have been carried out under natural field conditions (plot trials, 10 square meter plots, 2-4 replications).
(§2) The applications have been done with seed treatment, pre- or post-emergence treatments straight (alone, 1 application) or sequential treatments e.g. seed treatment followed by pre-emergence and/or post-emergence spray applications. The pre- or post-emergence applications were made with spray applications using 100-300 l/water per hectare. The growth stage of the crops species at the time of application are reported in the result tables. The dose rates of the herbicidal active ingredients applied alone respective in sequential application are also described in the result tables.
(§3) The assessments have been done via visual ratings (0-100% scale) or counting. The trials have been harvested after crops reached the full maturity. After the harvest the total weight of kernels/seeds/beets per plot was measured. The results are reported as means over 2-4 replications. The time between applications and assessments or countings/harvest are described in the result tables as well.
(§4) The active ingredients have been applied to the untreated, dry seeds together with a carrier. After a short period of time to let the seeds dry, they were ready to be sown in the pot or field using standard equipments.

The test system of assay [2] is winter oilseed rape. Put plainly: Field trial: grain yield effects on winter oilseed rape, sequential application of isoxadifen. It counts as in vivo.
Excerpt: as §1, §2, §3, §4

The subject of assay [3] is sugarbeets. Put plainly: Field trial: sugar yield of sugarbeets, sequential application. Type of assay: in vivo, sugarbeet.
Excerpt: as §1, §2, §3, §4

Assay [4] has as its system corn. Put plainly: Field trial: grain yield effect on corn, sequential treatment with isoxadifen-ethyl. It counts as in vivo.
Excerpt: as §1, §2, §3, §4

The subject of assay [5] is spring wheat. Nature of the assay: Field trial: grain yield effects on spring wheat, postemergence treatment with isoxadifen-ethyl. It counts as in vivo. The note with it: 74 days after application.
Excerpt: as §1, §2, §3

The subject of assay [6] is sugarbeet. Put plainly: Field trial: yield effects on sugarbeet, sequential application of isoxadifen-ethyl. It counts as in vivo.
Excerpt: as §1, §2, §3, §4

In assay [7] the test system is winter wheat. Put plainly: Field trial: grain yield effects on winter wheat, postemergence treatment with isoxadifen-ethyl. Type of assay: in vivo. The following applies: 84 days after application.
Excerpt: as §1, §2, §3

The subject of assay [8] is spring wheat. Nature of the assay: Field trial: grain yield effects on spring wheat, seed treatment with isoxadifen-ethyl. It counts as in vivo. The following applies: 158 days after application.
Excerpt: as §1, §2, §3, §4

Assay [9] deals with spring oilseed rape (canola). Nature of the assay: Field trial: grain yield effects on spring oilseed rape (canola), postemergence treatment with IDF-Et + TBC. The note with it: 92 days after application. It counts as in vivo. An excerpt:
The trials have been carried out under natural field conditions (plot trials, 10 square meter plots, 2-4 replications). The applications have been done with seed treatment, pre- or post-emergence treatments straight (alone, 1 application) or sequential treatments e.g. seed treatment followed by pre-emergence and/or post-emergence spray applications. The pre- or post-emergence applications were made with spray applications using 100-300 l/water per hectare. The growth stage of the crops species at the time of application are reported in the result tables. The dose rates of the herbicidal active ingredients applied alone respective in sequential application are also described in the result tables. The assessments have been done via visual ratings (0-100% scale) or counting. The trials have been harvested after crops reached the full maturity. After the harvest the total weight of kernels/seeds/beets per plot was measured. The results are reported as means over 2-4 replications. The time between applications and assessments or countings/harvest are described in the result tables as well.

The mark [10] stands for this setting: grain yield relative to UTC (100%), 100 g ai/ha post-emergence.
[11] abbreviates: grain yield, 100 g ai/ha post-emergence.

The compound `O=C(O)C1=NOC(c2ccccc2)(c2ccccc2)C1` [IDF, 5,5-diphenyl-2-isoxazolinecarboxylic acid] displayed a plants/18 row meters in assay [1] (emergence of sugarbeets, counting 28 days after planting) of 74 plants/18 row meters. The Relative in assay [1] (emergence relative to UTC (100%), sugarbeets, 28 days after planting) came to 113.8%; in [2] (grain yield relative to UTC (100%), 3 g ai/kg seed fb 3 × 50 g ai/ha post) it was 105%. In addition, the “Difference(%) vs. UTC” value in assay [1] (emergence, sugarbeets, 28 days after planting) is on record as “+13.8%”; in assay [2] (grain yield, 3 g ai/kg seed fb 3 × 50 g ai/ha post), “+5%”. In addition, the Yield in [2] (3 g ai/kg seed fb 3 × 50 g ai/ha post (4-6 leaves, stem elongation, beginning of flowering), grain yield at harvest, 102 days after application) is 2.63 t/ha.
As to `CCOC(=O)C1=NOC(c2ccccc2)(c2ccccc2)C1` [IDF-Et, ethyl 5,5-diphenyl-2-isoxazolinecarboxylate], the “Sugar Yield” value in assay [3] (0.015 mg ai/seed fb 3 × 50 g ai/ha post (2-4, 6-8, 10-12 leaves), sugar yield by weight at harvest, 162 days after application) is listed as 6.19 t/ha. Further, the Relative in assay [3] (sugar yield relative to UTC (100%), 0.015 mg ai/seed fb 3 × 50 g ai/ha post) turned out to be 108.6%; in assay [4] (grain yield relative to UTC (100%), 0.5 g ai/kg seed fb 3 × 50 g ai/ha post), 124%; in assay [6] (beet yield relative to UTC (100%), 0.015 mg ai/seed fb 3 × 50 g ai/ha post), 111.2%. For the same compound, the “Difference(%) vs. UTC” value in assay [3] (sugar yield, 0.015 mg ai/seed fb 3 × 50 g ai/ha post) is reported as “+8.6%”; in [4] (grain yield, 0.5 g ai/kg seed fb 3 × 50 g ai/ha post) it was “+24%”; in assay [5] (setting [11]) it was “+13.2%”; in [6] (beet yield, 0.015 mg ai/seed fb 3 × 50 g ai/ha post), “+11.2%”; in assay [7] (setting [11]), “+9%”; in assay [8] (grain yield, seed treatment 0.5 g ai/kg seed) it was “+8.7%”. For the same compound, the Yield in assay [4] (0.5 g ai/kg seed fb 3 × 50 g ai/ha post (2-4, 6-8, 10-12 leaves), grain yield at harvest, 72 days after application) was determined as 10.80 t/ha; in [5] (100 g ai/ha post-emergence spring, flag leaf/beginning of ear heading, grain yield at harvest), 7.67 t/ha; in assay [6] (0.015 mg ai/seed fb 3 × 50 g ai/ha post (2-4, 6-8, 10-12 leaves), yield of beets by weight at harvest, 162 days after application) it was 65.3 t/ha; in assay [7] (100 g ai/ha post-emergence spring, beginning of stem elongation, grain yield at harvest) it was 8.09 t/ha; in assay [8] (seed treatment 0.5 g ai/kg seed (prior planting), grain yield at harvest) it was 6.58 t/ha. Besides, the Relative % in assay [5] (setting [10]) turned out to be 113.2%; in [7] (setting [10]), 109.0%; in assay [8] (grain yield relative to UTC (100%), seed treatment 0.5 g ai/kg seed) it was 108.7%.
`CC(C)(C)C(O)(CCc1ccc(Cl)cc1)Cn1cncn1` (stereo not drawn) [TBC, tebuconazole]: in assay [9] (grain yield relative to UTC (100%), canola, TBC 150, IDF-Et 100 g ai/ha), the Relative % came out at 101.8%. For the same compound, in [9] (grain yield, canola, TBC 150, IDF-Et 100 g ai/ha), the “Difference(%) vs. UTC” value is listed as “+1.8%”. The Yield in [9] (spring oilseed rape (canola), TBC 150 g ai/ha, IDF-Et 100 g ai/ha, post-emergence spring, beginning of flowering, grain yield at harvest) is given as 3.98 t/ha.
